Test results: article PMC6039436, “Radiobrominated benzimidazole-quinoline derivatives as Platelet-derived growth factor receptor beta (PDGFRβ) imaging probes” (Scientific Reports, 2018)
Marks after values point to notes of the source that are not given here. One block for each compound: values may come before it.

Assays:
PDGFRβ (BxPC3-luc cells) = target: T1, PDGFRβ (BxPC3-luc cells) (Homo sapiens, UniProt P09619); test: Competitive binding assay of [^125I]4 with BxPC3-luc cells; conditions: displacement of [^125I]4, BxPC3-luc cells, 37 °C, 4 h
T1 construct: host or cells: BxPC3-luc cells
T1 sequence (P09619 33-1106): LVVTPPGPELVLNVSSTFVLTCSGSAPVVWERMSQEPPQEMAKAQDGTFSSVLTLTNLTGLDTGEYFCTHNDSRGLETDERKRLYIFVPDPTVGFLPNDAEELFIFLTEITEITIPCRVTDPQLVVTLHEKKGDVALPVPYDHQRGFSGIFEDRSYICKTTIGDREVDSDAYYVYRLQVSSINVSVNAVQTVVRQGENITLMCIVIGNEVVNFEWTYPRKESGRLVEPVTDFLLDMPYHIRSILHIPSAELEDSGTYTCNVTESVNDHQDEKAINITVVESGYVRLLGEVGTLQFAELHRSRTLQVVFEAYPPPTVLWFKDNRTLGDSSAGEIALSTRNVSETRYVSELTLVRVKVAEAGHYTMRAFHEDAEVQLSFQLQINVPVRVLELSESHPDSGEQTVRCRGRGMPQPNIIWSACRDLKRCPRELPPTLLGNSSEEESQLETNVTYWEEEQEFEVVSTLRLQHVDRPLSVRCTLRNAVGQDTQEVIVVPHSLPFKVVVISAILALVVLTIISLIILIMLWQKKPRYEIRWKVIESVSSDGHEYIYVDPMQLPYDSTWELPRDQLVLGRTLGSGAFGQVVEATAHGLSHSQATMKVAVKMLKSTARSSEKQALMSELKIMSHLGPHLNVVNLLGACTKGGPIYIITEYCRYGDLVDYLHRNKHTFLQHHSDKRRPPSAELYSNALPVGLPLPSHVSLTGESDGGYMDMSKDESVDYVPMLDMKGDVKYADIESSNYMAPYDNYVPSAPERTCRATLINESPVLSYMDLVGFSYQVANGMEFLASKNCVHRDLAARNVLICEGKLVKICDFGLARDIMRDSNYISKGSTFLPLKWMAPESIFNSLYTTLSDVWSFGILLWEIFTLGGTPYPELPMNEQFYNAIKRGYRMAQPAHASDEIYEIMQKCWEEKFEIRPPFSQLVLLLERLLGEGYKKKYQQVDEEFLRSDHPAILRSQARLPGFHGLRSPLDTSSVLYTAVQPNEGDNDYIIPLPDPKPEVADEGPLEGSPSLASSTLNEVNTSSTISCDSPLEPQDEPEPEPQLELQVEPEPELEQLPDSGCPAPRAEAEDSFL
Experimental: We investigated the competitive binding of [^125I]4 to BxPC3-luc cells with PDGFRβ ligand, 1, 2, and 3.
BxPC3-luc cells in medium containing 10% FBS and antibiotics were seeded on 24-well plates (50,000 cells/wells) and incubated for 24 h in a 5% CO2 incubator at 37 °C. Nine concentrations of displacing nonradiolabeled ligands (1, 2 and 3) (ranging from 1 pM to 1 mM) and [^125I]4 in medium without FBS were incubated at 37 °C for 4 h. After washing the cells twice using 250 µL of ice-cold PBS, the unbound radioligand was removed. The cells were dissolved using 250 µL of 1 M NaOH and wells were washed with 250 µL of 1 M NaOH. The bound radioactivity was determined using a gamma counter.
All data were statisticaly analyzed using GraphPad 5.0 software (La Jolla, CA, USA) and expressed as mean ± standard deviation (SD). Significance for in vitro blocking experiments was determined by a one-way analysis of variance (ANOVA) followed by Dunnett’s post hoc test compared to the control group. Significance in cell viability assays was determined by ANOVA followed by Tukey’s post hoc test. IC50 values for the binding assay were calculated by nonlinear regression. Significant differences in biodistribution experiments between [^77Br]2 and [^77Br]3 groups were determined using unpaired Student’s t-test. Significance for in vivo blocking studies between control and blocking groups were determined by unpaired Student’s t-test. Results were considered statistically significant at p < 0.05.

[1] = Biodistribution in ddY mice; format: in vivo; conditions: i.v. co-injection
Experimental: In this study, to minimize both the number of mice consumed in the experiment and the potential for experimental errors, we co-injected radiobrominated and radioiodinated compounds into mice[30],[31]. High radioactivity in the liver, small intestine, and large intestine was observed.
(§1) Mice were intravenously injected via the tail with 100 µL of saline solution of [^77Br]2 and [^125I]4 or [^77Br]3 and [^125I]5 (74 kBq, respectively), containing 10% ethanol and 1% tween-80. The ddY mice were sacrificed at 10 min, 1, 4, and 24 h postinjection. Meanwhile, tumor-bearing mice were sacrificed at 1 h postinjection.
(§2) Tissues in mice were resected and weighed. The radioactivity of the tissues was counted by a gamma counter and counts were corrected for background radiation. The data were expressed as percent injection dose per gram tissue (%ID/g).

BxPC3-luc tumor = test: Biodistribution in BxPC3-luc tumor-bearing mice; format: in vivo, BALB/c nu/nu mice; conditions: i.v. co-injection, 1 h
Experimental: We investigated the biodistribution of the radiotracers in BxPC3-luc tumor-bearing mice by co-injecting [^77Br]2 with [^125I]4 (Table 3), and [^77Br]3 with [^125I]5 (Table 4).
Animal experiments were conducted in strict accordance with the Guidelines for the Care and Use of Laboratory Animals of Kanazawa University. The animal experimental protocols used were approved by the Committee on Animal Experimentation of Kanazawa University (Permit Number: AP-163766). The animals were housed with free access to food and water at approximately 23 °C with a 12 h light/dark schedule. ddY mice (six-week-old, male, 27–30 g) and BALB/c nu/nu mice (four-week-old, female, 12–17 g) were purchased from Japan SLC Inc. (Hamamatsu, Japan). For preparing the tumor-bearing mice, BxPC3-luc cells (5 × 10^6 cells) were subcutaneously injected into the left shoulder of BALB/c nu/nu mice. The tumor reached palpable size after two weeks of the inoculation.
as §1, §2

[2] = design: method as in PMID 28838832; conditions: radioiodinated compounds; cited from earlier work

IC50 (PDGFRβ (BxPC3-luc cells)): 183 ± 8 nM
Structure (SMILES): COCCOc1ccc2c(c1)ncn2-c1ccc2cccc(N3CCC(N)CC3)c2n1 [Compound 1, 1-{2-[5-(2-methoxyethoxy)-1H-benzo[d]imidazol-1-yl]quinolin-8-yl}piperidin-4-amine, reference compound]

Radioactivity in Kidney ([1]; 10 min): 5.23 (0.65) %injected dose/gram tissue
Radioactivity in Large intestine ([1]; 10 min): 0.75 (0.06)^* %injected dose/gram tissue
Radioactivity in Lung ([1]; 10 min): 1.80 (0.30)^* %injected dose/gram tissue
Radioactivity in Muscle ([1]; 10 min): 0.97 (0.16)^* %injected dose/gram tissue
Radioactivity in Pancreas ([1]; 10 min): 2.41 (0.20) %injected dose/gram tissue
Radioactivity in Spleen ([1]; 10 min): 1.72 (0.23) %injected dose/gram tissue
Radioactivity in Stomach ([1]; 10 min): 2.09 (1.12) %injected dose /organ
Radioactivity in Kidney ([1]; 1 h): 1.57 (0.42) %injected dose/gram tissue
Radioactivity in Large intestine ([1]; 1 h): 3.46 (2.18) %injected dose/gram tissue
Radioactivity in Lung ([1]; 1 h): 1.07 (0.08) %injected dose/gram tissue
Radioactivity in Muscle ([1]; 1 h): 0.31 (0.13)^* %injected dose/gram tissue
Radioactivity in Stomach ([1]; 1 h): 0.78 (0.19) %injected dose /organ
Radioactivity in Kidney ([1]; 4 h): 0.36 (0.10)^* %injected dose/gram tissue
Radioactivity in Liver ([1]; 4 h): 1.21 (0.96) %injected dose/gram tissue
Radioactivity in Lung ([1]; 4 h): 0.50 (0.19) %injected dose/gram tissue
Radioactivity in Muscle ([1]; 4 h): 0.16 (0.08)^* %injected dose/gram tissue
Radioactivity in Small intestine ([1]; 4 h): 1.32 (0.66)^* %injected dose/gram tissue
Radioactivity in Stomach ([1]; 4 h): 0.27 (0.10) %injected dose /organ
Radioactivity in Stomach ([1]; 24 h): 0.01 (0.00)^** %injected dose /organ
Radioactivity in Stomach (BxPC3-luc tumor): 0.27 (0.06)^* %injected dose /organ
Structure (SMILES): COCCOc1ccc2c(c1)ncn2-c1ccc2cccc(N3CCC(NC(=O)c4cccc([125I])c4)CC3)c2n1 [[^125I]5, [^125I]N-3-iodobenzoyl-1-{2-[5-(2-methoxyethoxy)-1H-benzo[d]imidazol-1-yl]quinolin-8-yl}-piperidin-4-amine, reference compound]
Radioactivity in Blood ([1]; 10 min): 0.94 (0.14)^** %injected dose/gram tissue
Radioactivity in Bone ([1]; 10 min): 0.81 (0.11)^** %injected dose/gram tissue
Radioactivity in Brain ([1]; 10 min): 0.19 (0.03)^** %injected dose/gram tissue
Radioactivity in Heart ([1]; 10 min): 1.66 (0.23)^** %injected dose/gram tissue
Radioactivity in Liver ([1]; 10 min): 16.37 (2.05)^** %injected dose/gram tissue
Radioactivity in Small intestine ([1]; 10 min): 9.59 (1.71)^** %injected dose/gram tissue
Radioactivity in Blood ([1]; 1 h): 0.26 (0.05)^** %injected dose/gram tissue
Radioactivity in Bone ([1]; 1 h): 0.64 (0.31)^*** %injected dose/gram tissue
Radioactivity in Brain ([1]; 1 h): 0.07 (0.03)^** %injected dose/gram tissue
Radioactivity in Heart ([1]; 1 h): 0.39 (0.15)^** %injected dose/gram tissue
Radioactivity in Liver ([1]; 1 h): 3.32 (0.49)^** %injected dose/gram tissue
Radioactivity in Pancreas ([1]; 1 h): 0.86 (0.07)^** %injected dose/gram tissue
Radioactivity in Small intestine ([1]; 1 h): 24.03 (1.45)^** %injected dose/gram tissue
Radioactivity in Spleen ([1]; 1 h): 0.70 (0.16)^** %injected dose/gram tissue
Radioactivity in Blood ([1]; 4 h): 0.08 (0.01)^** %injected dose/gram tissue
Radioactivity in Bone ([1]; 4 h): 0.40 (0.09)^** %injected dose/gram tissue
Radioactivity in Brain ([1]; 4 h): 0.01 (0.00)^** %injected dose/gram tissue
Radioactivity in Heart ([1]; 4 h): 0.20 (0.04)^** %injected dose/gram tissue
Radioactivity in Large intestine ([1]; 4 h): 18.55 (1.85)^** %injected dose/gram tissue
Radioactivity in Pancreas ([1]; 4 h): 0.27 (0.07)^** %injected dose/gram tissue
Radioactivity in Spleen ([1]; 4 h): 0.27 (0.09)^** %injected dose/gram tissue
Radioactivity in Blood ([1]; 24 h): 0.01 (0.00)^** %injected dose/gram tissue
Radioactivity in Bone ([1]; 24 h): 0.06 (0.00)^** %injected dose/gram tissue
Radioactivity in Brain ([1]; 24 h): 0.00 (0.00)^** %injected dose/gram tissue
Radioactivity in Heart ([1]; 24 h): 0.02 (0.01)^** %injected dose/gram tissue
Radioactivity in Kidney ([1]; 24 h): 0.05 (0.00)^** %injected dose/gram tissue
Radioactivity in Large intestine ([1]; 24 h): 0.02 (0.00)^** %injected dose/gram tissue
Radioactivity in Liver ([1]; 24 h): 0.06 (0.00)^** %injected dose/gram tissue
Radioactivity in Lung ([1]; 24 h): 0.01 (0.00)^** %injected dose/gram tissue
Radioactivity in Muscle ([1]; 24 h): 0.01 (0.00)^** %injected dose/gram tissue
Radioactivity in Pancreas ([1]; 24 h): 0.02 (0.00)^** %injected dose/gram tissue
Radioactivity in Small intestine ([1]; 24 h): 0.01 (0.00)^** %injected dose/gram tissue
Radioactivity in Spleen ([1]; 24 h): 0.02 (0.00)^** %injected dose/gram tissue
Radioactivity in Blood (BxPC3-luc tumor): 0.23 (0.02)^** %injected dose/gram of tissue
Radioactivity in Bone (BxPC3-luc tumor): 0.31 (0.04)^** %injected dose/gram of tissue
Radioactivity in Brain (BxPC3-luc tumor): 0.05 (0.00)^** %injected dose/gram of tissue
Radioactivity in BxPC3-luc tumor (BxPC3-luc tumor): 0.55 (0.09)^* %injected dose/gram of tissue
Radioactivity in Heart (BxPC3-luc tumor): 0.42 (0.05)^** %injected dose/gram of tissue
Radioactivity in Kidney (BxPC3-luc tumor): 1.13 (0.11)^** %injected dose/gram of tissue
Radioactivity in Large intestine (BxPC3-luc tumor): 7.98 (3.79) %injected dose/gram of tissue
Radioactivity in Liver (BxPC3-luc tumor): 4.83 (0.71)^** %injected dose/gram of tissue
Radioactivity in Lung (BxPC3-luc tumor): 1.16 (0.23)^** %injected dose/gram of tissue
Radioactivity in Muscle (BxPC3-luc tumor): 0.38 (0.06)^** %injected dose/gram of tissue
Radioactivity in Pancreas (BxPC3-luc tumor): 1.25 (0.17)^** %injected dose/gram of tissue
Radioactivity in Small intestine (BxPC3-luc tumor): 46.95 (2.88)^** %injected dose/gram of tissue
Radioactivity in Spleen (BxPC3-luc tumor): 0.61 (0.06)^** %injected dose/gram of tissue
n-octanol/phosphate buffer partition coefficient (log P) [2]: 3.19 ± 0.17

IC50 (PDGFRβ (BxPC3-luc cells)): 1280 nM
Structure (SMILES): COCCOc1ccc2c(c1)ncn2-c1ccc2cccc(N3CCC(NC(=O)c4cccc(Br)c4)CC3)c2n1 [Compound 3, N-3-bromobenzoyl-1-{2-[5-(2-methoxyethoxy)-1H-benzo[d]imidazol-1-yl]quinolin-8-yl}-piperidin-4-amine]
